Measured values: patent US20260049092A1, “ANTIBACTERIAL COMPOUNDS” (Blacksmith Medicines, Inc., priority 2022, published 2026)
≈ marks a conversion by molar mass, not a printed value. Where two headings read alike, the source gives them in different places.

Key:
Assay in all cases: Bacterial susceptibility testing (MIC, broth microdilution)
Type in all cases: cell-based
E. coli ATCC25922 = conditions: for MIC: Escherichia coli
Description: (§1) Minimal inhibitory concentrations (MIC) were determined by the broth microdilution method in accordance with the Clinical and Laboratory Standards Institute (CLSI) guidelines. In brief, organism suspensions were adjusted to a final inoculum between 3×10^5 and 7×10^5 colony-forming units (CFU)/mL. Drug dilutions and inocula were made in sterile, cation adjusted Mueller-Hinton Broth (Beckton Dickinson). In wells, an inoculum volume of 100 μL was mixed to 2 μL of DMSO with 2-fold serial dilutions of drug. All inoculated microdilution trays were incubated in ambient air at 35° C. for 18-24 h. Following incubation, the lowest concentration of the drug that prevented visible growth (OD600 nm<0.05) was recorded as the MIC. Performance of the assay was monitored by the use of laboratory quality -control strains and compounds with defined MIC spectrum, in accordance with CLSI guidelines.

P. aeruginosa ATCC27853 = conditions: for MIC: Pseudomonas aeruginosa
Description: as §1

K. pneumoniae ATCC13883 = conditions: for MIC: Klebsiella pneumoniae
Description: as §1

P. aeruginosa PAO1 = conditions: Pseudomonas aeruginosa
Description: as §1

[1] = ATCC25922, broth microdilution, cation adjusted Mueller-Hinton Broth, 35° C., 18-24 h, read-out: E. coli ATCC25922 MIC
[2] = ATCC27853, broth microdilution, cation adjusted Mueller-Hinton Broth, 35° C., 18-24 h, read-out: P. aeruginosa ATCC27853 MIC
[3] = ATCC13883, broth microdilution, cation adjusted Mueller-Hinton Broth, 35° C., 18-24 h, read-out: K. pneumoniae ATCC13883 MIC
[4] = PAO1, broth microdilution, cation adjusted Mueller-Hinton Broth, 35° C., 18-24 h, read-out: P. aeruginosa PAO1 MIC
[5] = broth microdilution, cation adjusted Mueller-Hinton Broth, 35° C., 18-24 h

MIC (E. coli ATCC25922; [1]) [µg/mL] | MIC (P. aeruginosa ATCC27853; [2]) [µg/mL] | MIC (K. pneumoniae ATCC13883; [3]) [µg/mL] | MIC (P. aeruginosa PAO1; [4]) [µg/mL] | E. coli ATCC25922 MIC (E. coli ATCC25922; [5]) [µg/mL] | P. aeruginosa ATCC27853 MIC (P. aeruginosa ATCC27853; [5]) [µg/mL] | K. pneumoniae ATCC13883 MIC (K. pneumoniae ATCC13883; [5]) [µg/mL] | SMILES | MIC (E. coli ATCC25922; ATCC25922, read-out: E. coli ATCC25922 MIC) [µg/mL] | MIC (P. aeruginosa ATCC27853; ATCC27853, read-out: P. aeruginosa ATCC27853 MIC) [µg/mL] | MIC (K. pneumoniae ATCC13883; ATCC13883, read-out: K. pneumoniae ATCC13883 MIC) [µg/mL] | MIC (P. aeruginosa PAO1; PAO1, read-out: P. aeruginosa PAO1 MIC) [µg/mL]
0.5 (≈ 1.11 µM) | 4 (≈ 8.84 µM) | 2 (≈ 4.42 µM) | 2 (≈ 4.42 µM) |  |  |  | C[C@H](O)c1nccn1[C@@H](C#Cc1ccc(-c2ccc(O[C@@H]3COC[C@H]3O)cc2F)cc1)CO (racemic) [Compound 1, (rac-trans)-4-((2-fluoro-4′-((S)-4-hydroxy-3-(2-((S)-1-hydroxyethyl)-1H-imidazol-1-yl)but-1-yn-1-yl)-[1,1′-biphenyl]-4-yl)oxy)tetrahydrofuran-3-ol] |  |  |  | 
2 (≈ 4.42 µM) | 8 (≈ 17.7 µM) | 4 (≈ 8.84 µM) | 8 (≈ 17.7 µM) |  |  |  | C[C@H](O)c1nccn1[C@@H](C#Cc1ccc(-c2ccc(O[C@@H]3COC[C@H]3O)cc2)cc1F)CO (racemic) [Compound 4, (rac-trans)-4-((3′-fluoro-4′-((S)-4-hydroxy-3-(2-((S)-1-hydroxyethyl)-1H-imidazol-1-yl)but-1-yn-1-yl)-[1,1′-biphenyl]-4-yl)oxy)tetrahydrofuran-3-ol] |  |  |  | 
2 (≈ 4.42 µM) | 4 (≈ 8.84 µM) | 4 (≈ 8.84 µM) | 4 (≈ 8.84 µM) |  |  |  | C[C@H](O)c1nccn1[C@@H](C#Cc1ccc(-c2ccc(O[C@@H]3COC[C@H]3O)cc2)c(F)c1)CO (racemic) [Compound 5, (rac-trans)-4-((2′-fluoro-4′-((S)-4-hydroxy-3-(2-((S)-1-hydroxyethyl)-1H-imidazol-1-yl)but-1-yn-1-yl)-[1,1′-biphenyl]-4-yl)oxy)tetrahydrofuran-3-ol] |  |  |  | 
2 (≈ 4.42 µM) | 4 (≈ 8.84 µM) | 4 (≈ 8.84 µM) | 2 (≈ 4.42 µM) |  |  |  | C[C@H](O)c1nccn1[C@@H](C#Cc1ccc(-c2ccc(OC3COC[C@H]3O)c(F)c2)cc1)CO (mixture of isomers) [Compound 6, (rac-trans)-4-((3-fluoro-4′-((S)-4-hydroxy-3-(2-((S)-1-hydroxyethyl)-1H-imidazol-1-yl)but-1-yn-1-yl)-[1,1′-biphenyl]-4-yl)oxy)tetrahydrofuran-3-ol] |  |  |  | 
4 (≈ 8.57 µM) | 8 (≈ 17.1 µM) | 8 (≈ 17.1 µM) | 8 (≈ 17.1 µM) |  |  |  | C[C@H](O)c1nccn1[C@@H](C#Cc1ccc(-c2ccc(CO[C@@H]3COC[C@H]3O)c(F)c2)cc1)CO (racemic) [Compound 44, (rac-trans)-4-((3-fluoro-4′-((S)-4-hydroxy-3-(2-((S)-1-hydroxyethyl)-1H-imidazol-1-yl)but-1-yn-1-yl)-[1,1′-biphenyl]-4-yl)methoxy)tetrahydrofuran-3-ol] |  |  |  | 
2 (≈ 4.29 µM) | 8 (≈ 17.1 µM) | 4 (≈ 8.57 µM) | 2 (≈ 4.29 µM) |  |  |  | C[C@H](O)c1nccn1[C@@H](C#Cc1ccc(-c2ccc(O[C@@H]3CCOC[C@H]3O)c(F)c2)cc1)CO (racemic) [Compound 51, (rac-trans)-4-((3-fluoro-4′-((S)-4-hydroxy-3-(2-((S)-1-hydroxyethyl)-1H-imidazol-1-yl)but-1-yn-1-yl)-[1,1′-biphenyl]-4-yl)oxy)tetrahydro-2H-pyran-3-ol] |  |  |  | 
1 (≈ 2.14 µM) | 8 (≈ 17.1 µM) | 2 (≈ 4.29 µM) | 4 (≈ 8.57 µM) |  |  |  | C[C@H](O)c1nccn1[C@@H](C#Cc1ccc(-c2ccc(O[C@@H]3CCOC[C@H]3O)cc2F)cc1)CO (racemic) [Compound 54, (rac-trans)-4-((2-fluoro-4′-((S)-4-hydroxy-3-(2-((S)-1-hydroxyethyl)-1H-imidazol-1-yl)but-1-yn-1-yl)-[1,1′-biphenyl]-4-yl)oxy)tetrahydro-2H-pyran-3-ol] |  |  |  | 
2 (≈ 4.47 µM) | 4 (≈ 8.94 µM) | 4 (≈ 8.94 µM) | 2 (≈ 4.47 µM) |  |  |  | C[C@H](O)c1nccn1[C@@H](C#Cc1ccc(-c2ccc(CN[C@@H]3COC[C@H]3O)cc2)cc1)CO (racemic) [Compound 65] |  |  |  | 
1 (≈ 2.23 µM) | 2 (≈ 4.47 µM) | 2 (≈ 4.47 µM) | 1 (≈ 2.23 µM) |  |  |  | C[C@H](O)c1nccn1[C@@H](C#Cc1ccc(-c2ccc(NC[C@@H]3COC[C@H]3O)cc2)cc1)CO (racemic) [Compound 69, (rac-trans)-4-(((4′-((S)-4-hydroxy-3-(2-((S)-1-hydroxyethyl)-1H-imidazol-1-yl)but-1-yn-1-yl)-[1,1′-biphenyl]-4-yl)amino)methyl)tetrahydrofuran-3-ol] |  |  |  | 
 |  |  |  |  |  |  | CC(N1CC(Oc2ccc(-c3ccc(C#C[C@@H](CO)n4ccnc4[C@H](C)O)cc3)cc2)C1)C(F)(F)F (mixture of isomers) [Compound 97, (2S)-2-(2-((S)-1-hydroxyethyl)-1H-imidazol-1-yl)-4-(4′-((1-(1,1,1-trifluoropropan-2-yl)azetidin-3-yl)oxy)-[1,1′-biphenyl]-4-yl)but-3-yn-1-ol] | 4 (≈ 8.01 µM) | 32 (≈ 64.1 µM) | 8 (≈ 16 µM) | 16 (≈ 32 µM)
1 (≈ 2.19 µM) | 8 (≈ 17.5 µM) | 2 (≈ 4.38 µM) | 4 (≈ 8.76 µM) |  |  |  | CC1C(Oc2ccc(-c3ccc(C#C[C@@H](CO)n4ccnc4[C@H](C)O)cc3)cc2)CN1CC#N (mixture of isomers) [Compound 99] |  |  |  | 
0.5 (≈ 1.17 µM) | 4 (≈ 9.38 µM) | 1 (≈ 2.34 µM) | 1 (≈ 2.34 µM) |  |  |  | C[C@H](O)c1nccn1[C@@H](C#Cc1ccc(-c2ccc([C@H]3C[C@](N)(C#N)C3)cc2)cc1)CO (racemic) [Compound 101, (rac-cis)-1-amino-3-(4′-((S)-4-hydroxy-3-(2-((S)-1-hydroxyethyl)-1H-imidazol-1-yl)but-1-yn-1-yl)-[1,1′-biphenyl]-4-yl)cyclobutane-1-carbonitrile] |  |  |  | 
2 (≈ 4.61 µM) | 8 (≈ 18.5 µM) | 4 (≈ 9.23 µM) | 4 (≈ 9.23 µM) |  |  |  | CNC(=O)C(C)Oc1ccc(-c2ccc(C#C[C@@H](CO)n3ccnc3[C@H](C)O)cc2)cc1 (mixture of isomers) [Compound 102, 2-((4′-((S)-4-hydroxy-3-(2-((S)-1-hydroxyethyl)-1H-imidazol-1-yl)but-1-yn-1-yl)-[1,1′-biphenyl]-4-yl)oxy)-N-methylpropanamide] |  |  |  | 
2 (≈ 4.38 µM) | 2 (≈ 4.38 µM) | 4 (≈ 8.76 µM) | 2 (≈ 4.38 µM) |  |  |  | C[C@H](O)c1nccn1[C@@H](C#Cc1ccc(-c2ccc(OC3CCN(CC#N)C3)cc2)cc1)CO (mixture of isomers) [Compound 104, 2-(3-((4′-((S)-4-hydroxy-3-(2-((S)-1-hydroxyethyl)-1H-imidazol-1-yl)but-1-yn-1-yl)-[1,1′-biphenyl]-4-yl)oxy)pyrrolidin-1-yl)acetonitrile] |  |  |  | 
0.25 (≈ 0.644 µM) | 4 (≈ 10.3 µM) | 0.5 (≈ 1.29 µM) | 2 (≈ 5.15 µM) |  |  |  | C[C@H](O)c1nccn1[C@@H](C#Cc1ccc(-c2ccc(C3CCO3)cc2)cc1)CO (mixture of isomers) [Compound 106, (2S)-2-(2-((S)-1-hydroxyethyl)-1H-imidazol-1-yl)-4-(4′-(oxetan-2-yl)-[1,1′-biphenyl]-4-yl)but-3-yn-1-ol] |  |  |  | 
0.12 (≈ 0.288 µM) | 4 (≈ 9.6 µM) | 0.25 (≈ 0.6 µM) | 2 (≈ 4.8 µM) |  |  |  | CO[C@H]1C[C@H](c2ccc(-c3ccc(C#C[C@@H](CO)n4ccnc4[C@H](C)O)cc3)cc2)C1 (racemic) [Compound 117, (S)-2-(2-((S)-1-hydroxyethyl)-1H-imidazol-1-yl)-4-(4′-((rac-trans)-3-methoxycyclobutyl)-[1,1′-biphenyl]-4-yl)but-3-yn-1-ol] |  |  |  | 
0.12 (≈ 0.288 µM) | 4 (≈ 9.6 µM) | 0.38 (≈ 0.912 µM) | 2 (≈ 4.8 µM) |  |  |  | CO[C@H]1C[C@@H](c2ccc(-c3ccc(C#C[C@@H](CO)n4ccnc4[C@H](C)O)cc3)cc2)C1 (racemic) [Compound 118, (S)-2-(2-((S)-1-hydroxyethyl)-1H-imidazol-1-yl)-4-(4′-((rac-cis)-3-methoxycyclobutyl)-[1,1′-biphenyl]-4-yl)but-3-yn-1-ol] |  |  |  | 
4 (≈ 7.96 µM) | > 32 | 8 (≈ 15.9 µM) | 8 (≈ 15.9 µM) |  |  |  | C[C@H](O)c1nccn1[C@@H](C#Cc1ccc(-c2ccc(O[C@H]3COC[C@]3(O)C(F)(F)F)cc2)cc1)CO (racemic) [Compound 119, (rac-cis)-4-((4′-((S)-4-hydroxy-3-(2-((S)-1-hydroxyethyl)-1H-imidazol-1-yl)but-1-yn-1-yl)-[1,1′-biphenyl]-4-yl)oxy)-3-(trifluoromethyl)tetrahydrofuran-3-ol] |  |  |  | 
1 (≈ 2.02 µM) | 4 (≈ 8.07 µM) | 2 (≈ 4.04 µM) | 2 (≈ 4.04 µM) |  |  |  | C[C@H](O)c1nccn1[C@@H](C#Cc1ccc(-c2ccc(O[C@H]3C[C@H](NS(C)(=O)=O)C3)cc2)cc1)CO (racemic) [Compound 120, N-((rac-trans)-3-((4′-((S)-4-hydroxy-3-(2-((S)-1-hydroxyethyl)-1H-imidazol-1-yl)but-1-yn-1-yl)-[1,1′-biphenyl]-4-yl)oxy)cyclobutyl)methane-sulfonamide] |  |  |  | 
 |  |  |  | 1 | 4 | 2 | C[C@H](O)c1nccn1[C@@H](C#Cc1ccc(-c2ccc(CO[C@H]3COC[C@@H]3O)c(F)c2)cc1)CO (single isomer, unassigned) [Compound 46] |  |  |  | 
